Measurements published in patent US11859087B2, “Fluorescent dye, preparation method therefor, and application thereof” (SUZHOU BAIYUAN GENT CO., LTD., priority 2018, dated 2024).
Counter-ions that a name gives are not always drawn.

Assays:
[1] = Determination of fluorescence quantum yield of fluorescent dyes; type: physicochemical; conditions: 20° C., absolute ethanol, quinine sulfate as reference
Protocol: The fluorescence quantum yield of the fluorescent dyes was determined at 20° C., and quinine sulfate (Solvent: 0.1M H2SO4, Quantum yield: 0.56) was used as a reference compound, then the fluorescence quantum yield was calculated by measuring fluorescence integral intensities obtained from the dilute solutions of the fluorescent dyes and the reference compound under the same excitation conditions and the ultraviolet absorption value at this excitation wavelength. The product was dissolved in absolute ethanol.
The formula for calculating fluorescence quantum yield is as shown in equation (2):
[formula] wherein Φ represents quantum yield of the compound to be measured, the subscript R represents reference compound, I represents fluorescence integral intensity, A represents ultraviolet absorption value, and η represents solvent refractive index. Generally, the ultraviolet absorption values A and AR are less than 0.1.

[2] = Determination of the fluorescence spectrum of fluorescent dyes; type: physicochemical; conditions: for λem (max/nm): ethanol and water (50:50, v/v), 1.0×10^−6 mol/L, excitation at maximum absorption wavelength
Protocol: The fluorescence spectrum was measured using the maximum absorption wavelength in the measured near-infrared spectrum as the excitation wavelength of the fluorescence spectrum. The compounds prepared in Example 1 and Examples 4-6 were accurately weighed to prepare a solution of ethanol and water (50:50, v/v) at a concentration of 1.0×10^−6 mol/L. The emission spectrum of the solution was measured, and the result was shown in FIG. 1. In FIG. 1, 1 represents the intermediate prepared in Example 1, and 2-4 represent the compounds prepared in Examples 4-6, respectively.

[3] = Determination of the absorption spectrum of fluorescent dyes; type: physicochemical; conditions: 1.0×10^−5 mol/L in 50% by volume of ethanol
Description: The compounds prepared in Example 1 and Examples 4-6 were accurately weighed to prepare a solution having a concentration of 1.0×10^−5 mol/L using 50% by volume of ethanol. In FIG. 2, 1 represents the intermediate prepared in Example 1, and 2-4 represent the compound prepared in Examples 4-6, respectively.

[4] = Determination of molar extinction coefficient by UV-visible absorption spectroscopy; type: physicochemical; conditions: A=εcl
Protocol: The molar extinction coefficient of the compound was determined by UV-visible absorption spectroscopy. The formula for calculating molar extinction coefficient is as shown in equation (1): A=εcl Equation (1), wherein A represents ultraviolet absorption value, ε represents molar extinction coefficient, c represents concentration of the compound, and l represents thickness of the quartz cell for detection.

[5] = reference compound, solvent 0.1M H2SO4; cited from earlier work

| Φ (%) [1] [%] | Stokes shift (nm) [2] [nm] | λem (max/nm) [2] [nm] | λabs (max/nm) [3] [nm] | ε × 10^4 (M^−1 cm^−1) [4] | SMILES | Quantum yield [5] |
| --- | --- | --- | --- | --- | --- | --- |
| 84.99 | 38 | 815 | 785 | 8.5 × 10^4 M^−1 cm^−1 | CC1(C)C(/C=C/C2=C(NCC(=O)O)C(=C/C=C3/N(/C=C/Br)c4ccccc4C3(C)C)/CCC2)=[N+](/C=C/Br)c2ccccc21 [Example 4] |  |
| 86.00 | 40 | 820 | 787 | 8.6 × 10^4 M^−1 cm^−1 | CC1(C)C(/C=C/C2=C(NCO)C(=C/C=C3/N(/C=C/Br)c4ccccc4C3(C)C)/CCC2)=[N+](/C=C/Br)c2ccccc21 [Example 5] |  |
| 89.86 | 34 | 829 | 790 | 9.0 × 10^4 M^−1 cm^−1 | CC1(C)C(/C=C/C2=C(NCc3cccc(C(=O)O)c3)C(=C/C=C3/N(/C=C/Br)c4ccccc4C3(C)C)/CCC2)=[N+](/C=C/Br)c2ccccc21 [Example 6] |  |
|  |  |  |  |  | C=C[C@H]1C[N@@]2CC[C@H]1C[C@H]2[C@H](O)c1ccnc2ccc(OC)cc12 [quinine sulfate] | 0.56 |
